In article PMC6680510, “Benzotriazine Di-Oxide Prodrugs for Exploiting Hypoxia and Low Extracellular pH in Tumors” (Molecules, 2019):
Values joined by “and” are separate entries in the source; they are usually repeats but may differ in a detail not shown here. Identical values can stand only once. Like-named read-outs stand apart in the source and are kept apart here.

Assays:
[1] = Solubility in AlphaMEM + 5% FBS, pH 7.4; details: culture medium (AlphaMEM + 5% FBS), pH 7.4, plasma or biological fluid, thermodynamic from solid
SiHa cells [2] = test: Cellular uptake in stirred aerobic single cell suspensions (HPLC, 3H-mannitol correction); details: for Observed Ci/Ce ratio: SiHa
SiHa cells [3] = test: IC50 assay (inhibition of proliferation, 4 h exposure, SRB); details: SiHa; for IC50: Homo sapiens, 4 h
Method in brief: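 Cells exposed to compound for 4 h in titrated medium, then washed and regrown 5 days under standard conditions (oxia, pHe 7.4). Growth read by sulforhodamine B staining; IC50 from 4-parameter logistic regression of duplicate cultures.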

[4] = Protein binding by equilibrium dialysis (FBS, culture medium); assay type: in vitro ADME
Method: Protein binding of 7a in plasma from NIHIII mice and fetal bovine serum (FBS) assessed
by equilibrium dialysis using a 12-14KDa cut-off dialysis membrane (HTDialysis, Gales Ferry, CT) as
Briefly, 100 µL samples of undiluted plasma,
plasma diluted in PBS, and αMEM with or without FBS containing 7a at 100 μM were dialysed against
100 µL PBS or αMEM (pH 7.4) in an incubator (Innova-42, New Brunswick Scientific, US ) at 37°C
with shaking at 80 rpm for 6 h. Proteins were precipitated with 3 vol of ice-cold MeCN, the

[5] = One-electron reduction potentials by pulse radiolysis; assay type: physicochemical; details: pH 7.0, equilibrium with redox indicator shown in square brackets
Method: One-electron reduction potentials (E^0′) were determined from the redox equilibria with methylviologen, MV^2+, (E^0′ = […], [34]), dimethyldiquat, V21^2+, (E^0′ = […], [35]), or triquat, TQ^2+, (E^0′ = −548 ± 7 mV [34]). […] Substituting the 3-alkanoic sidechain with the 3-aminoalkanoic sidechain on the BTO 1,4-dioxide lowers the E^0′, as does the addition of the cyclopentane ring. The combined effect is seen for 10a, where the E^0′ value is −565 mV, which is expected to be too low for significant bioreduction under hypoxia.
(§1) Time-resolved optical absorption and kinetic studies were carried out using the University of Auckland’s 4 MeV linear accelerator, which has been previously described. The one-electron reduction potentials of the compounds (A) and couple E^0′(A/A^−), versus normal hydrogen electrode, were determined at pH 7.0 (2.5 mM phosphate) by establishing redox equilibria within 50 μs between three mixtures of one-electron reduced A and the viologen reference compounds, MV^2+, TQ^2+ and V21^2+. The determined equilibrium constants were used to calculate the ΔE values using the Nernst equation, correcting for ionic strength effects, as described in the literature.

SiHa and SiHa/POR cells = test: IC50 in SiHa versus SiHa/POR cultures under anoxia; assay type: cell-based; details: 4 h under anoxia, pHe 7.4
Method: The lack of effect of POR over-expression on the reductive metabolism of the BTO acids in intact cells led us to compare the cytotoxicities of SN30000 (2), 4a, and 7a in SiHa/POR, and the parental line, under anoxia (Figure 6).
Drug exposure was for 4 h under anoxia, at pHe 7.4, with regrowth under aerobic conditions for 5 days before staining with SRB. Values are means and SEM for the two experiments, each with triplicate cultures at each drug concentration. TEXT PRINTED IN THE PICTURE: Cmpd 2: Ratio 6.75 ± 0.20 | Cmpd 4a: Ratio 3.40 ± 0.22 | Cmpd 7a: Ratio 2.67 ± 0.46

[6] = Pulse radiolysis of the radical anion (pKa, decay and oxidation kinetics); assay type: physicochemical
Text: The free radical chemistry of 7a was investigated by pulse radiolysis and electron paramagnetic resonance (EPR). […] The radical anion decayed slowly under anoxia at pH 7 with mixed kinetics (first-order rate constant of 78 ± 4 s^−1, second-order rate constant of 3.8 ± 0.7 × 10^7 M^−1 s^−1, Figure S3), broadly similar to SN30000 [24]. The second-order rate constant for oxidation of the radical anion of 7a by O2, 5.39 ± 0.40 × 10^6 M^−1 s^−1 (Figure S4), is consistent with the known dependence on E^0′ for BTOs.
as §1
Molecules 2019, 24, x FOR PEER REVIEW 3 of 8
Figure S2. Effect of pH on the change in radical absorption at 490 nm upon one-electron reduction of 7a ([…]) by the CO2.- radical anion following pulse radiolysis (3 Gy in 200 ns) of N2O-saturated solutions containing sodium formate (0.1 M) and buffers (10 mM). Data points, obtained ca. 20 ms […]
Figure S3. […]
dependence on increasing radiation dose (radical concentration) of the reciprocal of the first half-life of decay of the radical anion of 7a measured at 490 nm. […]
Figure S4. Dependence of the first-order rate constant measured at 490 nm for the decay of the radical anion of 7a at pH 7.0, k, on the concentration of O2 in solution following pulse radiolysis (10 Gy in 200 ns). […] The second order rate constant, kO2, calculated from the gradient

FaDu cells = test: IC50 assay (inhibition of proliferation, 4 h exposure, SRB); assay type: cell-based; details: for IC50: Homo sapiens, 4 h
Method: Cells were seeded in 96-well plates (SiHa or FaDu 1500 cells/well, UT-SCC-74B 800 cells/well) in 100 μL. After incubation for 2 h, the drugs were added in 50 μL of the same titrated medium at 3× the final concentration to duplicate the wells. After a further 4 h the plates were checked for drug precipitation using a phase contrast microscope, then drugs were removed by aspirating and washing with the standard (pH 7.4) medium, then aspirating again and adding 150 μL of the medium. Cultures were then grown for 5 days before staining with sulphorhodamine B and measuring absorbance, with the estimation of IC50 values using 4-parameter logistic regression, as previously carried out [85].
The medium and plasticware was equilibrated in the chamber for 3 days prior to use. In the anoxia experiments, FaDu cells were plated in poly-L-lysine coated plates (Corning Cat # 356461) to improve attachment.

[7] = system: MDCK-II cells with forced expression of BCRP or Pgp; test: IC50 under anoxia in cells with forced expression of efflux transporters; details: MDCK-II cell lines under anoxia, preliminary experiments
Method: expression of BCRP or Pgp.
Cells were seeded at 300 cells/well in DMEM with 10% FBS in 96 well plates in an
anaerobic chamber, allowed to attach for 2 h then exposed to drugs for 4 h under anoxia. Cells were
then washed with fresh medium and grown for 5 days under aerobic conditions before staining with
SRB. Values are mean ± SEM from 2 separate experiments.

[8] = Measured pKa (potentiometric titration)

SMILES: O=C(O)CCc1n[n+]([O-])c2cc3c(cc2[n+]1[O-])CCC3 [Compound 7a, 3-(2-Carboxyethyl)-7,8-dihydro-6H-indeno[5,6-e][1,2,4]triazine 1,4-Dioxide]
- solubility [1]: 24.8 mM
- Observed Ci/Ce ratio (SiHa cells [2]; pHe 6.5, approximate value quoted in text): ~ 0.7
- Observed Ci/Ce ratio (SiHa cells [2]; pHe 7.4, approximate value quoted in text): ~ 0.1
- Ci ratio (Ci at pHe 6.5/Ci at pHe 7.4) (SiHa cells [2]; aerobic SiHa suspensions, 5 min): 3.9 ± 1.3 fold
- Ci/Ce, pHe 6.5 Obs 5 min (SiHa cells [2]; aerobic SiHa suspensions, pHe 6.5, 5 min): 0.70 ± 0.03
- Ci/Ce, pHe 6.5 Obs 60 min (SiHa cells [2]; aerobic SiHa suspensions, pHe 6.5, 60 min): 0.75 ± 0.03
- Ci/Ce, pHe 7.4 Obs 5 min (SiHa cells [2]; aerobic SiHa suspensions, pHe 7.4, 5 min): 0.21 ± 0.08
- Ci/Ce, pHe 7.4 Obs 60 min (SiHa cells [2]; aerobic SiHa suspensions, pHe 7.4, 60 min): <0.1
- IC50 (SiHa cells [3]; read-out: Anoxic IC50, SiHa, pHe 6.5, 4 h, anoxic): 428 ± 152 µM
- IC50 (SiHa cells [3]; read-out: Anoxic IC50, SiHa, pHe 7.4, 4 h, anoxic): 864 ± 277 µM
- IC50 (SiHa cells [3]; read-out: Oxic IC50, SiHa, pHe 6.5, 4 h, oxic): 1890 ± 308 µM
- IC50 (SiHa cells [3]; read-out: Oxic IC50, SiHa, pHe 7.4, 4 h, oxic): 3720 ± 830 µM
- TMR (overall TME ratio = oxic IC50 pHe 7.4/anoxic IC50 pHe 6.5) (SiHa cells [3]): 8.7 ± 3.6
- PCR Anoxic (IC50 at pHe 7.4/IC50 at pHe 6.5) (SiHa cells [3]; anoxic): 2.02 ± 0.97
- PCR oxic (IC50 at pHe 7.4/IC50 at pHe 6.5) (SiHa cells [3]; oxic): 1.97 ± 0.55
- ACR (anoxic cytotoxicity ratio = oxic IC50/anoxic IC50) (SiHa cells [3]; pHe 6.5): 4.41 ± 1.73
- ACR (anoxic cytotoxicity ratio = oxic IC50/anoxic IC50) (SiHa cells [3]; pHe 7.4): 4.31 ± 1.58
- Protein binding in culture medium with 5 or 10% FBS ([4]; 100 μM): not detectable
- fraction unbound at 6 h, 100 µM ([4]; bovine, fetal bovine serum (FBS), pH 7.4, FBS, read-out: Protein binding (bound) in FBS (converted)): 0.38
- E^0′ one-electron reduction potential [5]: −463 mV and −463 ± 8 [MV^2+, V21^2+] mV
- IC50 ratio SiHa / SiHa/POR (fold lower IC50 in POR cell line) (SiHa and SiHa/POR cells): 2.67 ± 0.46 and 2.7
- First-order rate constant of radical anion decay ([6]; anoxia, pH 7): 78 ± 4 s⁻¹
- Second-order rate constant of radical anion decay ([6]; anoxia, pH 7): 3.8 ± 0.7 × 10^7 M^−1 s^−1
- Second-order rate constant for oxidation of the radical anion by O2 ([6]; pH 7.0): 5.39 ± 0.40 × 10^6 M^−1 s^−1
- TMR (oxic IC50 pHe 7.4/anoxic IC50 pHe 6.5) (FaDu cells): >7.9
- IC50 (FaDu cells; pHe 6.5, 4 h, anoxic, read-out: Anoxic IC50): 885 ± 515 µM
- IC50 (FaDu cells; pHe 6.5, 4 h, oxic, read-out: Oxic IC50): 4910 ± 1600 µM
- IC50 (FaDu cells; pHe 7.4, 4 h, anoxic, read-out: Anoxic IC50): 3260 ± 1070 µM
- IC50 (FaDu cells; pHe 7.4, 4 h, oxic, read-out: Oxic IC50): > 7000 µM
- PCR oxic (IC50 at pHe 7.4/IC50 at pHe 6.5) (FaDu cells; oxic): >1.4
- ACR (oxic IC50/anoxic IC50) (FaDu cells; pHe 6.5): 5.55 ± 3.70
- ACR (oxic IC50/anoxic IC50) (FaDu cells; pHe 7.4): > 2
- Effect of overexpression of BCRP or Pgp efflux transporters on sensitivity [7]: no effect
- pKa [8]: 4.16
